# Experiments:
# [1] = Growth inhibition of human HCC2998 cells after 48 hrs by sulforhodamine B assay; format: functional; conditions: HCC 2998, 48 h; for CC50: read-out: LC50 (the source's name)
# [2] = test system: UACC-257; test: Growth inhibition of human UACC257 cells after 48 hrs by sulforhodamine B assay; format: functional; conditions: UACC-257, 48 h; for CC50: read-out: LC50 (the source's name)
# [3] = test system: CCRF-CEM; test: Growth inhibition of human CCRF-CEM cells assessed as cell growth at 10 uM after 48 hrs by sulforhodamine B assay; format: functional; conditions: read-out: Activity
# [4] = test system: RPMI-8226; test: Growth inhibition of human RPMI8226 cells after 48 hrs by sulforhodamine B assay; format: functional, cell-based; conditions: RPMI-8226, 48 h; for CC50: read-out: LC50 (the source's name)
# [5] = test system: T47D; test: Growth inhibition of human T47D cells assessed as cell growth at 10 uM after 48 hrs by sulforhodamine B assay; format: functional; conditions: read-out: Activity
# [6] = test system: M14; test: Growth inhibition of human M14 cells after 48 hrs by sulforhodamine B assay; format: functional; conditions: M14, 48 h
# [7] = test system: KM12; test: Growth inhibition of human KM12 cells after 48 hrs by sulforhodamine B assay; format: functional, cell-based; conditions: KM12, 48 h; for CC50: read-out: LC50 (the source's name)
# [8] = test system: SNB-75; test: Growth inhibition of human SNB75 cells after 48 hrs by sulforhodamine B assay; format: functional; conditions: SNB-75, 48 h
# [9] = test system: ACHN; test: Growth inhibition of human ACHN cells assessed as cell growth at 10 uM after 48 hrs by sulforhodamine B assay; format: functional; conditions: read-out: Activity
# [10] = test system: MDA-MB-231; test: Growth inhibition of human MDA-MB-231 cells assessed as cell growth at 10 uM after 48 hrs by sulforhodamine B assay; format: functional; conditions: MDA-MB-231, 48 h, read-out: Activity
# [11] = test system: K562; test: Growth inhibition of human K562 cells assessed as cell growth at 10 uM after 48 hrs by sulforhodamine B assay; format: functional; conditions: K562, 48 h, read-out: Activity
# [12] = test system: A498; test: Growth inhibition of human A498 cells assessed as cell growth at 10 uM after 48 hrs by sulforhodamine B assay; format: functional; conditions: A498, 48 h, read-out: Activity
# [13] = test system: A498; test: Growth inhibition of human A498 cells after 48 hrs by sulforhodamine B assay; format: functional, cell-based; conditions: A498, 48 h; for CC50: read-out: LC50 (the source's name)
# [14] = test system: CCRF-CEM; test: Growth inhibition of human CCRF-CEM cells after 48 hrs by sulforhodamine B assay; format: functional
# [15] = test system: DU-145; test: Growth inhibition of human DU145 cells assessed as cell growth at 10 uM after 48 hrs by sulforhodamine B assay; format: functional; conditions: DU-145, 48 h, read-out: Activity
# [16] = test system: SN12C; test: Growth inhibition of human SN12C cells after 48 hrs by sulforhodamine B assay; format: functional; conditions: for CC50: read-out: LC50 (the source's name)
# [17] = test system: SW-620; test: Growth inhibition of human SW620 cells after 48 hrs by sulforhodamine B assay; format: functional; conditions: SW-620, 48 h; for CC50: read-out: LC50 (the source's name)
# [18] = test system: TK-10; test: Growth inhibition of human TK10 cells after 48 hrs by sulforhodamine B assay; format: functional; conditions: TK-10, 48 h; for CC50: read-out: LC50 (the source's name)
# [19] = test system: OVCAR-4; test: Growth inhibition of human OVCAR4 cells after 48 hrs by sulforhodamine B assay; format: functional; conditions: OVCAR-4, 48 h
# [20] = test system: NCI-H226; test: Growth inhibition of human NCI-H226 cells after 48 hrs by sulforhodamine B assay; format: functional; conditions: NCI-H226, 48 h; for CC50: read-out: LC50 (the source's name)
# [21] = test system: IGROV-1; test: Growth inhibition of human IGROV1 cells assessed as cell growth at 10 uM after 48 hrs by sulforhodamine B assay; format: functional; conditions: IGROV-1, 48 h, read-out: Activity
# [22] = test system: MCF7; test: Growth inhibition of human MCF7 cells assessed as cell growth at 10 uM after 48 hrs by sulforhodamine B assay; format: functional; conditions: MCF7, 48 h, read-out: Activity
# [23] = test system: SK-OV-3; test: Growth inhibition of human SKOV3 cells assessed as cell growth at 10 uM after 48 hrs by sulforhodamine B assay; format: functional; conditions: SK-OV-3, 48 h, read-out: Activity
# [24] = test system: SF-268; test: Growth inhibition of human SF268 cells after 48 hrs by sulforhodamine B assay; format: functional; conditions: SF-268, 48 h; for CC50: read-out: LC50 (the source's name)
# [25] = Growth inhibition of human NCI-ADR-RES cells assessed as cell growth at 10 uM after 48 hrs by sulforhodamine B assay; format: functional; conditions: read-out: Activity
# [26] = test system: Malme-3M; test: Growth inhibition of human MALME-3M cells assessed as cell growth at 10 uM after 48 hrs by sulforhodamine B assay; format: functional; conditions: read-out: Activity
# [27] = test system: U-251; test: Growth inhibition of human U251 cells assessed as cell growth at 10 uM after 48 hrs by sulforhodamine B assay; format: functional; conditions: U-251, 48 h, read-out: Activity
# [28] = test system: HCT-116; test: Growth inhibition of human HCT116 cells assessed as cell growth at 10 uM after 48 hrs by sulforhodamine B assay; format: functional; conditions: HCT-116, 48 h, read-out: Activity
# [29] = test system: NCI-H226; test: Growth inhibition of human NCI-H226 cells assessed as cell growth at 10 uM after 48 hrs by sulforhodamine B assay; format: functional; conditions: NCI-H226, 48 h, read-out: Activity
# [30] = test system: UACC-62; test: Growth inhibition of human UACC62 cells after 48 hrs by sulforhodamine B assay; format: functional; conditions: UACC-62, 48 h
# [31] = test system: COLO 205; test: Growth inhibition of human COLO205 cells assessed as cell growth at 10 uM after 48 hrs by sulforhodamine B assay; format: functional; conditions: COLO 205, 48 h, read-out: Activity
# [32] = test system: MDA-MB-435; test: Growth inhibition of human MDA-MB-435 cells after 48 hrs by sulforhodamine B assay; format: functional, cell-based; conditions: MDA-MB-435, 48 h; for CC50: read-out: LC50 (the source's name)
# [33] = test system: UO-31; test: Growth inhibition of human UO31 cells after 48 hrs by sulforhodamine B assay; format: functional; conditions: UO-31, 48 h; for CC50: read-out: LC50 (the source's name)
# [34] = test system: SR; test: Growth inhibition of human SR cells after 48 hrs by sulforhodamine B assay; format: functional; conditions: for CC50: read-out: LC50 (the source's name)
# [35] = test system: CAKI-1; test: Growth inhibition of human CAKI-1 cells assessed as cell growth at 10 uM after 48 hrs by sulforhodamine B assay; format: functional; conditions: CAKI-1, 48 h, read-out: Activity
smiles,measurement,setting,value
O=C(Nc1cccc(-n2cc(-c3ccncc3)c(-c3ccc(Cl)c(O)c3)n2)c1)Nc1ccc(Cl)c(Cl)c1,GI50,[1],2.89 µM
same,TGI,[1],13.9 µM
same,CC50,[1],> 32.5 µM
same,GI50,[2],0.93 µM
same,TGI,[2],3.16 µM
same,CC50,[2],> 32.5 µM
same,growth at 10 µM,[3],13.7%
same,GI50,[4],1.03 µM
same,IC50,[4],1.03 µM
same,TGI,[4],> 32.5 µM
same,CC50,[4],> 32.5 µM
same,growth at 10 µM,[5],23%
same,GI50,[6],1.18 µM
same,LC50 (concentration killing 50% of cells),[6],> 32.5 µM
same,TGI,[6],6.97 µM
same,GI50,[7],1.01 µM
same,TGI,[7],4.47 µM
same,CC50,[7],26.3 µM
same,GI50,[8],1.09 µM
same,"LC50 (lethal concentration, 50% net cell kill)",[8],> 32.5 µM
same,TGI,[8],12.2 µM
same,growth at 10 µM,[9],12.8%
same,growth at 10 µM,[10],-0.72%
same,growth at 10 µM,[11],11.4%
same,growth at 10 µM,[12],31.1%
same,GI50,[13],0.94 µM
same,IC50,[13],0.94 µM
same,TGI,[13],3.17 µM
same,CC50,[13],> 32.5 µM
same,GI50,[14],1.03 µM
same,LC50,[14],> 32.5 µM
same,TGI,[14],> 32.5 µM
same,growth at 10 µM,[15],25.9%
same,GI50,[16],1.31 µM
same,TGI,[16],> 32.5 µM
same,CC50,[16],> 32.5 µM
same,GI50,[17],1.46 µM
same,TGI,[17],> 32.5 µM
same,CC50,[17],> 32.5 µM
same,GI50,[18],1.91 µM
same,TGI,[18],> 32.5 µM
same,CC50,[18],> 32.5 µM
same,GI50,[19],1.69 µM
same,LC50 (concentration killing 50% of cells),[19],> 32.5 µM
same,TGI,[19],> 32.5 µM
same,GI50,[20],1.51 µM
same,TGI,[20],> 32.5 µM
same,CC50,[20],> 32.5 µM
same,growth at 10 µM,[21],28.7%
same,growth at 10 µM,[22],5.74%
same,growth at 10 µM,[23],18.7%
same,GI50,[24],1.49 µM
same,TGI,[24],10.9 µM
same,CC50,[24],> 32.5 µM
same,growth at 10 µM,[25],20.9%
same,growth at 10 µM,[26],10.3%
same,growth at 10 µM,[27],12.4%
same,growth at 10 µM,[28],11.1%
same,growth at 10 µM,[29],24.7%
same,GI50,[30],1.11 µM
same,LC50 (50% lethal concentration),[30],29.2 µM
same,TGI,[30],5.21 µM
same,growth at 10 µM,[31],30.2%
same,GI50,[32],1.1 µM
same,IC50,[32],1.1 µM
same,TGI,[32],6.05 µM
same,CC50,[32],> 32.5 µM
same,GI50,[33],1.25 µM
same,TGI,[33],> 32.5 µM
same,CC50,[33],> 32.5 µM
same,GI50,[34],1.14 µM
same,TGI,[34],15 µM
same,CC50,[34],> 32.5 µM
same,growth at 10 µM,[35],22.5%
COc1cc(-c2nn(-c3cccc(NC(=O)c4ccc(Cl)c(C(F)(F)F)c4)c3)cc2-c2ccncc2)ccc1Cl,GI50,[1],7.86 µM
same,TGI,[1],> 32.5 µM
same,CC50,[1],> 32.5 µM
same,GI50,[2],7.13 µM
same,TGI,[2],> 32.5 µM
same,CC50,[2],> 32.5 µM
same,growth at 10 µM,[3],12.4%
same,GI50,[4],1.62 µM
same,IC50,[4],1.62 µM
same,TGI,[4],> 32.5 µM
same,CC50,[4],> 32.5 µM
same,growth at 10 µM,[5],26.2%
same,GI50,[6],2.79 µM
same,LC50 (concentration killing 50% of cells),[6],> 32.5 µM
same,TGI,[6],> 32.5 µM
same,GI50,[7],2.06 µM
same,TGI,[7],> 32.5 µM
same,CC50,[7],> 32.5 µM
same,GI50,[8],2.19 µM
same,"LC50 (lethal concentration, 50% net cell kill)",[8],> 32.5 µM
same,TGI,[8],29.2 µM
same,growth at 10 µM,[9],39.1%
same,growth at 10 µM,[10],25.8%
same,growth at 10 µM,[11],8.65%
same,growth at 10 µM,[12],11.8%
same,GI50,[13],2.7 µM
same,IC50,[13],2.7 µM
same,TGI,[13],22.7 µM
same,CC50,[13],> 32.5 µM
same,GI50,[14],1.77 µM
same,LC50,[14],> 32.5 µM
same,TGI,[14],> 32.5 µM
same,growth at 10 µM,[15],65.4%
same,GI50,[16],11.2 µM
same,TGI,[16],> 32.5 µM
same,CC50,[16],> 32.5 µM
same,GI50,[17],4.75 µM
same,TGI,[17],> 32.5 µM
same,CC50,[17],> 32.5 µM
same,GI50,[18],20.4 µM
same,TGI,[18],> 32.5 µM
same,CC50,[18],> 32.5 µM
same,GI50,[19],8.04 µM
same,LC50 (concentration killing 50% of cells),[19],> 32.5 µM
same,TGI,[19],> 32.5 µM
same,GI50,[20],5.9 µM
same,TGI,[20],> 32.5 µM
same,CC50,[20],> 32.5 µM
same,growth at 10 µM,[21],48.9%
same,growth at 10 µM,[22],37.6%
same,growth at 10 µM,[23],64.3%
same,GI50,[24],4.86 µM
same,TGI,[24],> 32.5 µM
same,CC50,[24],> 32.5 µM
same,growth at 10 µM,[25],13.4%
same,growth at 10 µM,[26],16.8%
same,growth at 10 µM,[27],32.5%
same,growth at 10 µM,[28],24%
same,growth at 10 µM,[29],56.3%
same,GI50,[30],2.1 µM
same,LC50 (50% lethal concentration),[30],> 32.5 µM
same,TGI,[30],> 32.5 µM
same,growth at 10 µM,[31],69.4%
same,GI50,[32],0.664 µM
same,IC50,[32],0.66 µM
same,TGI,[32],1.74 µM
same,CC50,[32],24.7 µM
same,GI50,[33],0.267 µM
same,TGI,[33],> 32.5 µM
same,CC50,[33],> 32.5 µM
same,GI50,[34],0.848 µM
same,TGI,[34],> 32.5 µM
same,CC50,[34],> 32.5 µM
same,growth at 10 µM,[35],61.1%

# Reference: ChEMBL document CHEMBL2440076, “New triarylpyrazoles as broad-spectrum anticancer agents: design, synthesis, and biological evaluation” (Eur J Med Chem, 2013)
